Test results reported in patent EP0358494B1, “Emulsifiable concentrate of a pesticide” (priority 1988, dated 1990).
Like-named read-outs stand apart in the source and are kept apart here.

Test: Solubility of water in the cosolvent (Table 1)
Assay type: physicochemical
Experimental: All of the compositions were prepared by simple mechanical agitation of the ingredients together, using a Silveron (Trade Mark) high shear mixer. The nature and water solubility of the various cosolvents employed are as noted in Table 1.

[1] = the cosolvent itself (neat solvent)

| Molecule | Solubility of water in solvent (H20/Solv) [1] | Solubility of water in solvent (H20/Solv) |
| --- | --- | --- |
| CCSCc1ccccc1OC(=O)NC [ethiofencarb] | 0.18% w/w | – |
| COC(C)COC(C)CO (centres unmarked) [Dipropylene glycol monomethyl ether] | – | miscible |
| xylene | – | 0.87% w/w |
| COP(=S)(OC)Oc1ccc([N+](=O)[O-])c(C)c1 [fenitrothion] | 0.0014% w/w | – |
| CCOP(=S)(OCC)Oc1nc(Cl)c(Cl)cc1Cl [chlorpyrifos] | – | .0002% w/w |
